Where two headings read alike, the source gives them in different places.
Experiments:
[1] = test system: NFF, neonatal foreskin fibroblasts; assay: Cell survival assay (clonogenic survival, SRB), normal cells; type: cell-based, human; settings: SRB
Procedure: (§1) The cytotoxicities of the compounds of the invention were determined by clonogenic survival of human cancer cells (MM96L, melanoma) and human normal cells (NFF, neonatal foreskin fibroblasts). Cells were incubated with the compounds at various concentrations of compound (0.01-10 μg/mL) for 24 hours, washed, and then grown for a further four days in the absence of hydroxamic acid before determining cell survival by cell count. The final readout involved staining with sulforhodamine B (SRB), a cost-effective method amenable to automation and high throughput analysis. At the technical level, “cell sensitivity” is often inferred from short term (1-2 day) observations such as apoptosis, which may not be a satisfactory model of clonogenic survival.
(§2) Cell Lines and Culture Medium. All cell lines used in this study have been described previously (Parsons et al., 1986; Todaro et al., 1980; Glenn et al., 2004). All cell lines were cultured in 10% heat-inactivated foetal calf serum (CSL, Australia) in RPMI 1640 medium supplemented with 100 U/mL penicillin, 100 μg/mL streptomycin, and 3 mM HEPES at 5% CO2, 99% humidity at 37° C. Primary human fibroblasts were obtained from neonatal foreskins and cultured in the above medium. Routine mycoplasma tests were performed using Hoechst stain^i and were always negative.
(§3) Cell Survival Assay. Cells were plated into 96-well microtitre plates at 5×10^3 cells/well, and allowed to adhere overnight. Test compounds were added to culture medium at the indicated concentrations, and plates incubated in the above conditions for 24 hours. Following this incubation period, compounds and media were removed, and replaced with fresh culture medium. Cells were then grown for a further 72 hours before assay using sulforhodamine B (SRB; Sigma, St. Louis, Mo.) as previously described. Briefly, the culture medium was removed from the 96-well microtitre plates and the plates washed twice with phosphate buffered saline (PBS), before the cells were fixed with methylated spirits for 15 minutes. The plates were then rinsed with tap water and the fixed cells stained with 50 μL/well of SRB solution (0.4% sulforhodamine B (w/v) in 1% (v/v) acetic acid) over a period of 1 hour. The SRB solution was then removed from the wells and the plates rapidly washed two times with 1% (v/v) acetic acid. Protein bound dye was then solubilised with the addition of 100 μL of 10 mM unbuffered Tris, and incubated for 15 min at 25° C. Plates were then read at 564 nm on a VERSA max tunable microplate reader (Molecular Devices, Sunnyvale, Calif.).

MM96L melanoma cells = assay: Cell survival assay (clonogenic survival, SRB); type: cell-based, human; settings: for SI (Selectivity Index = IC50 (NFF)/IC50 (MM96L)): NFF vs MM96L
Procedure: as §1, §2, §3

[2] = Homo sapiens, Fibroblast, 24 h, Table 6, 24 hours with compound, further growth, read-out: IC50 (μM) NFF
[3] = Homo sapiens, MM96L, 24 h, Table 6, 24 hours with compound, further growth, SRB, read-out: IC50 (μM) MM96L
[4] = Homo sapiens, MM96L, most preferred compounds, exemplary examples, read-out: potency of IC50 against the MM96 melanoma cells
[5] = Table 6, IC50 (NFF)/IC50 (MM96L)
[6] = Table 8, 24 hours with compound, further growth, read-out: IC50 (μM) NFF
[7] = Table 8, 24 hours with compound, further growth, SRB, read-out: IC50 (μM) MM96
[8] = Table 8, IC50 (NFF)/IC50 (MM96L)
[9] = Table 5, 24 hours with compound, further growth, read-out: IC50 NFF
[10] = Table 5, 24 hours with compound, further growth, SRB, read-out: IC50 MM96L
[11] = Table 5, Selectivity Index = IC50 (NFF)/IC50 (MM96L)
[12] = NFF normal fibroblasts, 24 h with compound, further 72 h growth, read-out: IC50 (uM) NFF
[13] = MM96L melanoma, 24 h with compound, further 72 h growth, SRB, read-out: IC50 (uM) MM96L
[14] = Homo sapiens, Fibroblast, NFF normal fibroblasts, 24 h with compound, further 72 h growth, read-out: IC50 (uM) NFF
[15] = Homo sapiens, MM96L, MM96L melanoma, 24 h with compound, further 72 h growth, SRB, read-out: IC50 (uM) MM96L

CN(C)c1ccc(C(=O)N[C@@H](CSCCCC(=O)NO)C(=O)Nc2cccc3c2CCCC3)cc1 [Example 66] gave an IC50 [1, 2] of 2.2 ± 0.3 µM, an IC50 (MM96L melanoma cells; [3]) of 0.5 ± 0.1 µM and an IC50 (MM96L melanoma cells; [4]) of at most 0.5 µM. The Selectivity (MM96L melanoma cells; [5]) was 4.4.

With CN(C)c1ccc(C(=O)NC(CSCCCC(=O)NO)C(=O)NCc2ccc(C(=O)NC3CCCc4ccccc43)cc2)cc1 (mixture of isomers) [Example 119] the IC50 [1, 6] was 1.74 µM, the IC50 (MM96L melanoma cells; [7]) was 0.93 µM and the Selectivity (MM96L melanoma cells; [8]) was 1.9.

Cc1cc(C)cc(C(=O)N[C@@H](CSCCCC(=O)NO)C(=O)NCc2ccccc2)c1 [Example 26] was tested, and the IC50 [1, 9] was 10.9 ± 0.9 µM, the IC50 (MM96L melanoma cells; [10]) was 2 ± 0.4 µM and the Selectivity (MM96L melanoma cells; [11]) was 5.5.

With CN(C)c1ccc(C(=O)NC(CSCCCC(=O)NO)C(=O)NC(C)(C)C)cc1 (centres unmarked) [Example 96] the IC50 ([1]; Table 6, 24 hours with compound, further growth, read-out: IC50 (μM) NFF) was 3.5 ± 0.5 µM, the IC50 (MM96L melanoma cells; Table 6, 24 hours with compound, further growth, SRB, read-out: IC50 (μM) MM96L) was 0.7 ± 0.2 µM and the Selectivity (MM96L melanoma cells; [5]) was 5.0.

For CN(C)c1ccc(C(=O)N[C@@H](CSCCCC(=O)NO)C(=O)NCc2ccc(C(=O)NC3CCCC3)cc2)cc1 [Example 117], the IC50 [1, 6] was 5.27 µM, the IC50 (MM96L melanoma cells; [7]) was 1.19 µM and the Selectivity (MM96L melanoma cells; [8]) was 4.4.

In the case of O=C(CCCCC[C@H](NC(=O)c1cc2ccccc2[nH]1)C(=O)NCc1ccccc1)NO [Example 131], the IC50 [1, 12] is reported as 0.572 µM, the IC50 (MM96L melanoma cells; [13]) is reported as 0.08 µM and the “SI (Selectivity Index = IC50 (NFF)/IC50 (MM96L))” value (MM96L melanoma cells) is reported as 7.1.

In the case of O=C(CCCCC[C@H](NC(=O)OCc1ccccc1)C(=O)Nc1ccc(-c2ccccc2)cc1)NO [Example 160], the IC50 [1, 14] is reported as 2.21 µM, the IC50 (MM96L melanoma cells; [15]) is reported as 0.331 µM and the IC50 (MM96L melanoma cells; [4]) is reported as at most 0.5 µM. The “SI (Selectivity Index = IC50 (NFF)/IC50 (MM96L))” value (MM96L melanoma cells) was 6.7.

Compound C/C=C/C(=O)N[C@@H](CSCCCC(=O)NO)C(=O)NCc1ccccc1 [Example 52] has an IC50 [1, 9] of over 100 µM, an IC50 (MM96L melanoma cells; [10]) of 11 ± 0.7 µM and a Selectivity (MM96L melanoma cells; [11]) of over 9.

O=C(CCCSC[C@H](NC(=O)C1CC1)C(=O)NCc1ccccc1)NO [Example 55] showed an IC50 [1, 9] of over 100 µM, an IC50 (MM96L melanoma cells; [10]) of 21 ± 2 µM and a Selectivity (MM96L melanoma cells; [11]) of over 5.

For CC(C)NC(=O)c1ccc(CNC(=O)[C@H](CSCCCC(=O)NO)NC(=O)c2ccc(N(C)C)cc2)cc1 [Example 103], the IC50 [1, 6] was 10.1 µM, the IC50 (MM96L melanoma cells; [7]) was 1.38 µM and the Selectivity (MM96L melanoma cells; [8]) was 7.30.

Compound O=C(/C=C/c1ccccc1)N[C@@H](CSCCCC(=O)NO)C(=O)Nc1ccncc1 [Example 97] has an IC50 ([1]; Homo sapiens, Fibroblast, 24 h, Table 7, 24 hours with compound, further growth, read-out: IC50 (μM) NFF) of 1.6 ± 0.3 µM, an IC50 (MM96L melanoma cells; Homo sapiens, MM96L, 24 h, Table 7, 24 hours with compound, further growth, SRB, read-out: IC50 (μM) MM96L) of 0.5 ± 0.2 µM and a Selectivity (MM96L melanoma cells; Table 7, IC50 (NFF)/IC50 (MM96L)) of 3.3.

O=C(CCCSC[C@H](NC(=O)Cc1cccc([N+](=O)[O-])c1)C(=O)NCc1ccccc1)NO [Example 41] gave an IC50 [1, 9] of over 100 µM, an IC50 (MM96L melanoma cells; [10]) of 12 ± 1 µM and a Selectivity (MM96L melanoma cells; [11]) of over 8.

O=C(CCCSC[C@H](NC(=O)c1ccc(F)cc1)C(=O)NCc1ccccc1)NO [Example 29] was tested, and the IC50 [1, 9] was 26 ± 1 µM, the IC50 (MM96L melanoma cells; [10]) was 5.2 ± 0.6 µM and the Selectivity (MM96L melanoma cells; [11]) was 5.0.

Work on CN(C)c1ccc(C(=O)N[C@@H](CSCCCC(=O)NO)C(=O)N(Cc2ccccc2)Cc2ccccc2)cc1 [Example 74] yielded an IC50 [1, 2] of 15.3 ± 0.6 µM, an IC50 (MM96L melanoma cells; [3]) of 2.3 ± 0.2 µM and a Selectivity (MM96L melanoma cells; [5]) of 6.5.

O=C(CCCCC[C@H](NC(=O)CCCc1c[nH]c2ccccc12)C(=O)NCc1ccccc1)NO [Example 163] was tested, and the IC50 [1, 14] was 7.03 µM, the IC50 (MM96L melanoma cells; [15]) was 1.84 µM and the “SI (Selectivity Index = IC50 (NFF)/IC50 (MM96L))” value (MM96L melanoma cells) was 3.8.

CN(C)c1ccc(C(=O)N[C@@H](CCCCCC(=O)NO)C(=O)NCc2ccccn2)cc1 [Example 127] was tested, and the IC50 [1, 14] was 33 ± 5 µM, the IC50 (MM96L melanoma cells; [15]) was 3.6 ± 0.4 µM and the “SI (Selectivity Index = IC50 (NFF)/IC50 (MM96L))” value (MM96L melanoma cells) was 9.1.

In the case of O=C(CCCCCC(NC(=O)OCc1ccccc1)C(=O)NC1CCCc2ccccc21)NO (centres unmarked) [Example 156], the IC50 [1, 12] is reported as 1.71 µM, the IC50 (MM96L melanoma cells; [13]) is reported as 1.71 µM and the “SI (Selectivity Index = IC50 (NFF)/IC50 (MM96L))” value (MM96L melanoma cells) is reported as 1.

O=C(CCCCC[C@H](NC(=O)OCc1ccccc1)C(=O)NCc1ccccc1)NO [Example 154] was tested, and the IC50 [1, 14] was 1.52 µM, the IC50 (MM96L melanoma cells; [15]) was 1.52 µM and the “SI (Selectivity Index = IC50 (NFF)/IC50 (MM96L))” value (MM96L melanoma cells) was 1.
